The values below come from ChEMBL document CHEMBL1133162, “Tyrosine kinase inhibitors. 17. Irreversible inhibitors of the epidermal growth factor receptor: 4-(phenylamino)quinazoline- and 4-(phenylamino)pyrido[3,2-d]pyrimidine-6-acrylamides bearing additional solubilizing functions” (J Med Chem, 2000).

Experiment [1] addresses T1, Epidermal growth factor receptor (Homo sapiens, UniProt P00533).
Description: Inhibition of EGF-stimulated autophosphorylation of EGFR enzyme in A431 cells detected by immunoblotting
For experiment [2], the target named is T1, Epidermal growth factor receptor. This is another data set of the same source.
Description: Inhibition of phosphorylation of a polyglutamic acid/tyrosine random copolymer by EGFR enzyme prepared from human A431 carcinoma cell vesicles by immunoaffinity chromatography
For experiment [3], the system named is Caco-2. Briefly: permeability in Caco-2 cells; no. To be noted: Homo sapiens. In kind it is functional, cell-based. On the technique in general: Caco-2 cells form a polarised layer with tight junctions and transporters.
In experiment [4] the test system is Caco-2. Briefly: Efflux in Caco-2 cells; no. It counts as functional, cell-based. To be noted: Homo sapiens.
Experiment [5] deals with A-431. As to the kind of experiment: In vivo activity against A431 xenografts in mice, ratio of treated/control A431 cell tumor mass at 20 mg/kg peroral dose for 10-24 days. It counts as functional. To be noted: route oral.
The target of experiment [6] is Receptor tyrosine-protein kinase erbB-2 (Homo sapiens, UniProt P04626).
Receptor tyrosine-protein kinase erbB-2, sequence (P04626 whole entry): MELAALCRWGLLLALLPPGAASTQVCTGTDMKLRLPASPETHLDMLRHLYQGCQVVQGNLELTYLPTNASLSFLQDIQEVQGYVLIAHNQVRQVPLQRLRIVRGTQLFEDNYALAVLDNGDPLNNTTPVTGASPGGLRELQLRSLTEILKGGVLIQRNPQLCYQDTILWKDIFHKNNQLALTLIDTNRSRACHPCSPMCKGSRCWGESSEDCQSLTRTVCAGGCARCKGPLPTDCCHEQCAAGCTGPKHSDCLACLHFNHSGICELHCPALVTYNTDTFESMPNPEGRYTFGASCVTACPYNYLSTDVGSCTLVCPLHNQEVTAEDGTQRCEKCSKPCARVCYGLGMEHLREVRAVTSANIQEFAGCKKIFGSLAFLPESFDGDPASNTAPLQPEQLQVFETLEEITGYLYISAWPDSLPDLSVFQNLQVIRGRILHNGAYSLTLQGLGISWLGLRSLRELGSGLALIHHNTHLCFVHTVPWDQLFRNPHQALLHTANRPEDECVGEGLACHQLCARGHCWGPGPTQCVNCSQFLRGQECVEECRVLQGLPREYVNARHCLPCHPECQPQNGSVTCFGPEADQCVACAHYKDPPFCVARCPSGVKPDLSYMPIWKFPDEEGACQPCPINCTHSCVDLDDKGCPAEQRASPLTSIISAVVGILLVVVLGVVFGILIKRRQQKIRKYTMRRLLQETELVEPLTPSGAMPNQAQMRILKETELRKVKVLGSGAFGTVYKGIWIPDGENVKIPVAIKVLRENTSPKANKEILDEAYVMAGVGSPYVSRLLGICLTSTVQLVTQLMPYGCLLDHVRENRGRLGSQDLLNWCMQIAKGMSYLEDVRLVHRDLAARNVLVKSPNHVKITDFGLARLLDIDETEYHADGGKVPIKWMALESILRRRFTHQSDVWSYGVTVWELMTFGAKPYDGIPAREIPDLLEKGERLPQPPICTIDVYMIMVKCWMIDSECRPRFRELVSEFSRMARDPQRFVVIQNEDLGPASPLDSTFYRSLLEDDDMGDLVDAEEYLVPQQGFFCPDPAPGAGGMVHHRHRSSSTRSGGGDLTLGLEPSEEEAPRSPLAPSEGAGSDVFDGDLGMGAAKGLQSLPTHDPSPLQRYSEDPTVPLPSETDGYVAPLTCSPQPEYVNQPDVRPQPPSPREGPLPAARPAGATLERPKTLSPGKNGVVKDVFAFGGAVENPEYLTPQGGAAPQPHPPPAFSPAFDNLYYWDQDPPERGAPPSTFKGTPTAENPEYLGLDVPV
Description: Inhibition of autophosphorylation of ERBB2 receptor kinase in MDA-MB 453 cells
Experiment [7] has as its system A-431. Briefly: In vivo activity against A431 xenografts in mice, difference in days for treated(T) and control(C) tumors to reach 750 mg at 20 mg/kg peroral dose for 10-24 days. In kind it is functional. To be noted: route oral.
Experiment [8] has as its system A-431. As to the kind of experiment: In vivo activity against A431 xenografts in mice, ratio of treated/control tumor mass at 20 mg/kg peroral dose for 15-19 days. The conditions noted are these: route oral.
Experiment [9] relates to Caco-2. As to the kind of experiment: Secretory Transport in Caco-2 cells in comparison to metoprolol. It counts as functional, cell-based. Details: unit not given here. To be noted: Homo sapiens.
Experiment [10] concerns Caco-2. As to the kind of experiment: Absorptive transport in Caco-2 cells in comparison to metoprolol. In kind it is functional, cell-based. The conditions noted are these: Homo sapiens.
Experiment [11] relates to A-431. As to the kind of experiment: In vivo activity against A431 xenografts in mice, ratio of treated/control tumor mass at 18 mg/kg peroral dose for 10-24 days. To be noted: route oral.
In experiment [12] the test system is A-431. Briefly: In vivo activity against A431 xenografts in mice, ratio of treated/control tumor mass at 5 mg/kg peroral dose for 10-24 days. In kind it is functional. To be noted: route oral.
Experiment [13] deals with Caco-2. As to the kind of experiment: Absorptive transport in Caco-2 cells in comparison to metoprolol. To be noted: Homo sapiens. In kind it is functional, cell-based.
Experiment [14] has as its system Caco-2. As to the kind of experiment: Efflux in Caco-2 cells; yes. It counts as functional, cell-based. The conditions noted are these: Homo sapiens.
The test system of experiment [15] is Caco-2. As to the kind of experiment: permeability in Caco-2 cells; yes. To be noted: Homo sapiens. It counts as functional, cell-based.
In experiment [16] the test system is Mus musculus. As to the kind of experiment: In vivo activity against xenografts in mice, ratio of treated/control tumor mass at 10 mg/kg intraperitoneal dose.
Experiment [17] concerns A-431. As to the kind of experiment: In vivo activity against A431 xenografts in mice, difference in days for treated(T) and control(C) tumors to reach 750 mg at 10 mg/kg intraperitoneal dose for 13-26 days.
Experiment [18] deals with A-431. As to the kind of experiment: In vivo activity against A431 xenografts in mice after 60 mg/kg peroral dose. The conditions noted are these: route oral. It counts as functional.
The test system of experiment [19] is A-431. Briefly: In vivo activity against A431 xenografts in mice, difference in days for treated(T) and control(C) tumors to reach 750 mg at 60 mg/kg peroral dose for 10-24 days. It counts as functional. To be noted: route oral.
Experiment [20] relates to Mus musculus. Briefly: In vivo activity against xenografts in mice, ratio of treated/control tumor mass at 10 mg/kg peroral dose for 10-24 days. In kind it is functional. To be noted: route oral.

Each structure is given as a SMILES string. The source made the active and inactive calls. The rule behind the calls is not given here. Bounds are passed on as bounds.

T1 sequence (P00533 whole entry): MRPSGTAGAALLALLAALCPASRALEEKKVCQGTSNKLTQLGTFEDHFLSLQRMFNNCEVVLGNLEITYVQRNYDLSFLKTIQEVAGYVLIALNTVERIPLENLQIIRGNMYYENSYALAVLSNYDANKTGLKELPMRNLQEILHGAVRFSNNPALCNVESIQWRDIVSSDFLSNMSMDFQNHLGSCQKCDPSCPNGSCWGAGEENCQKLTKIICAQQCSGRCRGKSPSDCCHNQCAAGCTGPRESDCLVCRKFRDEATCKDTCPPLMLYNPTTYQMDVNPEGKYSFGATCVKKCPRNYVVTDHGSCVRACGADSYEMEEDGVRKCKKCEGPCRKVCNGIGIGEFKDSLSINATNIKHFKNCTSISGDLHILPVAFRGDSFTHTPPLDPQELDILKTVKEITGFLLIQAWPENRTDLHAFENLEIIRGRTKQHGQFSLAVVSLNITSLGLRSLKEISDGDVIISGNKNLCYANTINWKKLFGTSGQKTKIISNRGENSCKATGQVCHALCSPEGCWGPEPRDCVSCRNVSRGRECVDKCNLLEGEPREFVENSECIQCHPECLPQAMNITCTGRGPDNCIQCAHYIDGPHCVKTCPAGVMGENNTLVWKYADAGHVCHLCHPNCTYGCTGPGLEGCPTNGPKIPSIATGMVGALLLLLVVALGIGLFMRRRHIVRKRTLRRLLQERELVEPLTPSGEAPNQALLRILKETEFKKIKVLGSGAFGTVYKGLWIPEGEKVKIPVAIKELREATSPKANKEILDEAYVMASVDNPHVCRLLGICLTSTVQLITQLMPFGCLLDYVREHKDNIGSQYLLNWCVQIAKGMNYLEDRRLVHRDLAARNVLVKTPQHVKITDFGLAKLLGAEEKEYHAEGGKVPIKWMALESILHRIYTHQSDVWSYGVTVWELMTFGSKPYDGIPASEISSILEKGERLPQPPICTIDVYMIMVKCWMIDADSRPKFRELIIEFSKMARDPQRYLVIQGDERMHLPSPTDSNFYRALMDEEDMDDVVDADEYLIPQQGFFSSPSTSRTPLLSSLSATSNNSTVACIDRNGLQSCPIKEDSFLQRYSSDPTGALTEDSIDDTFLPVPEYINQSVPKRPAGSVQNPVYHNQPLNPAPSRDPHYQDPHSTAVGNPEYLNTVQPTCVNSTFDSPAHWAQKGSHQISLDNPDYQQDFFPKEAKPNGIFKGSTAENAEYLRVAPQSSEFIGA

Take `C=CC(=O)Nc1cc2c(Nc3cccc(Br)c3)ncnc2cc1SCCCN(CC)CC`: the IC50 is 196 nM in [1] and 0.78 nM in experiment [2].
For `C=CC(=O)Nc1nc2c(Nc3ccc(F)c(Cl)c3)ncnc2cc1OCCCN1CCOCC1`, the Permeability limited result in experiment [3] was “Impermeable”. Further, the Efflux entry in [4] was “Impermeable”. Further, in experiment [5], the T/C came out at 69%. Also, the IC50 was found to be 189 nM in experiment [6], 434 nM in experiment [1] and 1.5 nM in experiment [2]. The same molecule yielded a T-C in experiment [7] of 9.3 days. Moreover, the Weight change in experiment [8] is reported as -0.5 g. In addition, the results for the Permeability in experiment [9] and in experiment [10] were 81.2 and 59.6 ·10e6, respectively.
Consider `C=CC(=O)Nc1cc2c(Nc3ccc(F)c(Cl)c3)ncnc2cc1OCCCN1CCOCC1` [CANERTINIB], for which, in experiment [3], the Cell permeation entry is on record as “Impermeable”. The Efflux result in [4] was “Impermeable”. In addition, the results for the Last therapy day in experiment [11] and in experiment [12] were 0% and 4%, respectively. For the same molecule, the Permeability in [13] was 49.3 ·10e6.
In the case of `C=CC(=O)Nc1ccc2ncnc(Nc3ccc(OCCN(C)C)c(Br)c3)c2c1`, the IC50 in experiment [1] stood at 7690 nM; in experiment [2] it was 27 nM.
In the case of `COCCc1ccc(OCC(O)CNC(C)C)cc1` (stereo unspecified), the Permeability entry was “Impermeable” in experiment [3], “Impermeable” in [4] and 21.4 ·10e6 in experiment [10].
For `C=CC(=O)Nc1cc2c(Nc3ccc(F)c(Br)c3)ncnc2cc1OCCCN1CCOCC1`, the IC50 in [6] came to 8.2 nM; in [1] it was 4.7 nM; in experiment [2], 1.8 nM.
Turning to `C=CC(=O)Nc1nc2c(Nc3ccc(F)c(Cl)c3)ncnc2cc1/C=C/CCN1CCOCC1`, the IC50 in experiment [6] was determined as 12 nM; in [1], 119 nM; in experiment [2], 0.16 nM.
As for `CC[C@]1(O)C[C@@H]2CN(CCc3c([nH]c4ccccc34)[C@@](C(=O)OC)(c3cc4c(cc3OC)N(C)[C@H]3[C@@](O)(C(=O)OC)[C@H](OC(C)=O)[C@]5(CC)C=CCN6CC[C@]43[C@@H]65)C2)C1`, the Permeability result in [14] and in experiment [15] was “Active” throughout. For the same molecule, in experiment [10], the Permeability was 1.54 ·10e6.
As to `C=CC(=O)Nc1cc2c(Nc3ccc(F)c(Cl)c3)ncnc2cc1OCCOCCCCO`, in [2], the IC50 amounted to 1.7 nM.
With `C=CC(=O)N(C)c1nc2c(Nc3ccc(F)c(Cl)c3)ncnc2cc1OCCCN1CCOCC1`, the IC50 in [6] was more than 200 nM; in [1], 88 nM; in experiment [2], 20 nM.
In the case of `C=CC(=O)Nc1cc2c(Nc3cccc(Br)c3)ncnc2cc1OCCCN1CCN(C)CC1`, the IC50 in experiment [1] came out at 3 nM; in [2] it was 1.7 nM.
Take `C=CC(=O)Nc1nc2c(Nc3ccc(F)c(Cl)c3)ncnc2cc1CCCCN1CCOCC1`: the IC50 in experiment [6] was more than 5000 nM; in [1], 5100 nM; in [2], 2.7 nM.
For `C=CC(=O)Nc1nc2c(Nc3ccc(F)c(Cl)c3)ncnc2cc1OC` the same measures were 125 nM, 291 nM and 0.95 nM.
Molecule `C=CC(=O)Nc1ccc2ncnc(Nc3cccc(C)c3)c2c1` showed an IC50 in experiment [6] of 22 nM.
Turning to `C=CC(=O)Nc1nc2c(Nc3ccc(F)c(Cl)c3)ncnc2cc1OCCOC`, the IC50 in experiment [1] was found to be 377 nM; in [2], 0.97 nM.
As to `C=CC(=O)Nc1cc2c(Nc3cccc(Br)c3)ncnc2cc1OCCCCN(C)C`, the IC50 in [1] was 7.9 nM; in [2], 3.9 nM.
Regarding `C=CC(=O)Nc1cc2c(Nc3cccc(C)c3)ncnc2cc1OCCCN1CCN(C)CC1`, the results for the IC50 in [1] and in [2] were 18 nM and 2 nM, respectively.
Consider `C=CC(=O)Nc1nc2c(Nc3ccc(F)c(Cl)c3)ncnc2cc1OCCCN1CCN(C)CC1`, for which the IC50 amounted to 182 nM in [6], 264 nM in experiment [1] and 6.6 nM in experiment [2].
On to `C=CC(=O)Nc1ccc2ncnc(Nc3ccc(CN(C)C)c(Br)c3)c2c1`, for which the half-maximal inhibitory concentration (IC50) in experiment [1] was 416 nM; in [2] it was 45 nM.
For `C=CC(=O)Nc1cc2c(Nc3cccc(Br)c3)ncnc2cc1OCCCN1CCOCC1`, the results for the T/C in [16] and in [20] were 18% and 0%, respectively. In addition, the figures for the T-C in experiment [17] and in experiment [19] were 21.5 days and 29.8 days, respectively. In experiment [6], this molecule returned an IC50 of 6.4 nM. The molecule also had a Weight change in experiment [18] of -1.6 g.

Broadly, the IC50 is the concentration needed to halve the response being measured. As usually defined, the T/C is the result in the treated group divided by that in the control group, in per cent.
